{"source": "patent US20160208246A1", "about": "“COMPOSITIONS AND METHODS FOR TREATING A HEMATOLOGICAL MALIGNANCY ASSOCIATED WITH AN ALTERED RUNX1 ACTIVITY OR EXPRESSION” (YEDA RESEARCH AND DEVELOPMENT CO. LTD., priority 2013, published 2016)", "key": {"RUNX1": {"tested_on": "RUNX1", "test": "siRNA-mediated RUNX1 KD in Kasumi-1 cells (RT-qPCR, Western blotting)", "assay_type": "cell-based, human", "details": "Western blot, 50 μM, 24 hrs after 72 hrs siRNA", "description": "FIG. 1A, upper panel, is a schematic illustration of RUNX1 (blue) and RUNX1-ETO (A-E) (blue-red) transcripts indicating regions targeted by the siRNAs used to knock down (KD) expression of either RUNX1 (bars underneath RUNX1 marked in green and orange) or A-E (black bar underneath A-E fusion region). […] NO: 49) (as marked in green in the upper panel). Total RNA isolated 24 hrs post electroporation of RUNX1-targeting or non-targeting (NT) control siRNA. Data shown represent mean expression±SE. Shown are results from one of three experiments with the same findings. Primers used for RT-qPCR are presented in Table 1 (in the Examples section which follows). […] Blots were reacted with an antibody (Ab) against RUNX1-N-terminus or Lamin. Results from one of two experiments with the same findings are shown. […] KD efficiency was assessed both by RT-qPCR and immunoblotting. […] Cells were collected, washed once in PBS, and nuclear proteins were extracted and analyzed by Western blotting as previously described [Aziz-Aloya, R. et al., Cell Death (1998) 5, 765-773]. […] Quantitation of cDNAs was performed by qPCR using Roche LC480 LightCycler with sequence-specific primers (Table 1, below) and miScript SYBR Green PCR kit (QIAGEN). Target transcript quantification was calculated relative to ACTB mRNA, which served as an internal control. Standard errors were calculated using REST."}, "Kasumi-1 cells": {"tested_on": "Kasumi-1 cells", "test": "Cell cycle analysis (Propidium iodide, FACS)", "assay_type": "cell-based, human", "details": "50 μM, 24 hrs, three days post siRNA-delivery", "description": "FIGS. 1B and 1C illustrate cell cycle analysis 8 days post transfection with either RUNX1-targeting (SEQ ID NO: 52) or control non-targeting (NT) siRNA. FIG. 1B illustrates cells which were subjected to two successive transfections (at days 0 and 4) with either RUNX1-targeting or NT siRNA. Propidium iodide (PI) was used to assess cellular DNA content by FACS analysis. Bar numbers indicate the relative size (in %) of labeled population out of total cells. Indicated cell cycle phases: subG1; G1; S and G2M; and FIG. 1C are histograms summarizing the distribution of cell population as analyzed in FIG. 1B. Data represents mean±STDV values of five independent experiments.\nFIG. 1H illustrates that caspase inhibition rescues Kasumi-1^RX1-KD from apoptosis. […] Histograms show the distribution of cells among cell cycle phases determined as detailed above. […]\nFIGS. 2C-2G illustrate that KD of A-E rescues Kasumi-1 cells from RUNX1 KD-induced apoptosis. […] FIGS. 2C-2F, following incubation for 8 days, cells were stained with PI and analyzed by FACS for cell cycle; and FIG. 2G are histograms showing the distribution of cells among cell cycle phases. […]\nFor cell cycle analysis, cells were stained with Propidium iodide (Sigma-Aldrich) according to standard procedure. […] All data were collected using LSRII flow cytometer (BD Biosciences) and analyzed by FlowJo software."}}, "note": "Residues, ends and D or L forms follow the SMILES beside them. *: point of attachment. Cbz = O=C(OCc1ccccc1)*; CH2F = FC*"}
{"smiles": "COC(=O)C[C@H](NC(=O)[C@H](C)NC(=O)[C@@H](NC(=O)OCc1ccccc1)C(C)C)C(=O)CF", "note": "[Z-VAD-FMK] (Cbz-Val-Ala-Asp(OMe)-CH2F)", "values": [{"measurement": "RUNX1 protein levels in Kasumi-1^RX1-KD cells", "setting": "RUNX1", "value": "further reduced"}, {"measurement": "apoptosis in Kasumi-1^RX1-KD cells", "setting": "Kasumi-1 cells", "value": "completely blocked apoptosis"}, {"measurement": "subG1 fraction of Kasumi-1^RX1-KD cells", "setting": "Kasumi-1 cells", "value": "profound decrease"}]}
